Laboratory results reported in patent publication EP0946580B1, “NOVEL ERYTHROMYCIN DERIVATIVES, METHOD OF PREPARATION AND APPLICATION AS MEDICINES” (Aventis Pharma S.A., priority 1996, dated 1998).
≈ marks a conversion by molar mass, not a printed value.

Tests used:
Assay type in all cases: cell-based
[1] = system: Streptococcus pneumoniae 030ROIi; test: Liquid medium dilution method (MIC); conditions: 24 h incubation at 37°C, read-out: concentrations minimales inhibitrices (C.M.I.)
Procedure: (§1) Méthode des dilutions en milieu liquide
(§2) On a préparé une série de tubes dans lesquels on répartit une même quantité de milieu nutritif stérile. On distribue dans chaque tube des quantités croissantes du produit à étudier, puis chaque tube est ensemencé avec une souche bactérienne. Après incubation de vingt-quatre heures à l'étuve à 37°C, l'inhibition de la croissance est appréciée par transillumination de ce qui permet de déterminer les concentrations minimales inhibitrices (C.M.I.) exprimées en microgrammes/cm^3.

[2] = system: Streptococcus pyogenes groupe A 02A1UC1; test: Liquid medium dilution method (MIC); conditions: 24 h incubation at 37°C, read-out: concentrations minimales inhibitrices (C.M.I.)
Procedure: as §1, §2

[3] = system: Staphylococcus aureus 011UC4; test: Liquid medium dilution method (MIC); conditions: 24 h incubation at 37°C, read-out: concentrations minimales inhibitrices (C.M.I.)
Procedure: as §1, §2

[4] = system: Streptococcus mitis 02mitGR16I; test: Liquid medium dilution method (MIC); conditions: 24 h incubation at 37°C, read-out: concentrations minimales inhibitrices (C.M.I.)
Procedure: as §1, §2

[5] = system: Streptococcus agalactiae groupe B 02B1SJ1; test: Liquid medium dilution method (MIC); conditions: 24 h incubation at 37°C, read-out: concentrations minimales inhibitrices (C.M.I.)
Procedure: as §1, §2

[6] = system: Streptococcus faecium groupe D 02D3HT1; test: Liquid medium dilution method (MIC); conditions: Enterococcus faecium, 24 h incubation at 37°C, read-out: concentrations minimales inhibitrices (C.M.I.)
Procedure: as §1, §2

[7] = system: Streptococcus agalactiae groupe B 02B1HT1; test: Liquid medium dilution method (MIC); conditions: 24 h incubation at 37°C, read-out: concentrations minimales inhibitrices (C.M.I.)
Procedure: as §1, §2

[8] = system: Staphylococcus epidermidis 012GO11I; test: Liquid medium dilution method (MIC); conditions: 24 h incubation at 37°C, read-out: concentrations minimales inhibitrices (C.M.I.)
Procedure: as §1, §2

[9] = system: Streptococcus faecalis groupe D 02D2UC1; test: Liquid medium dilution method (MIC); conditions: Enterococcus faecalis, 24 h incubation at 37°C, read-out: concentrations minimales inhibitrices (C.M.I.)
Procedure: as §1, §2

[10] = system: Streptococcus mitis 02mitCB1; test: Liquid medium dilution method (MIC); conditions: 24 h incubation at 37°C, read-out: concentrations minimales inhibitrices (C.M.I.)
Procedure: as §1, §2

[11] = system: Streptococcus sp groupe G 02G0GR5; test: Liquid medium dilution method (MIC); conditions: 24 h incubation at 37°C, read-out: concentrations minimales inhibitrices (C.M.I.)
Procedure: as §1, §2

[12] = system: Haemophilus Influenzae 351CA1; test: Activity on gram-negative bacterial strains
[13] = system: Haemophilus Influenzae 351HT3; test: Activity on gram-negative bacterial strains
[14] = system: Haemophilus Influenzae 351GR6; test: Activity on gram-negative bacterial strains
[15] = system: Haemophilus Influenzae 351CB12; test: Activity on gram-negative bacterial strains

MIC [1]: ≤ 0.02 mg/L
MIC [2]: ≤ 0.02 mg/L
MIC [3]: 0.08 mg/L (≈ 0.101 µM)
MIC [4]: ≤ 0.02 mg/L
MIC [5]: 0.08 mg/L (≈ 0.101 µM)
MIC [6]: ≤ 0.02 mg/L
MIC [7]: ≤ 0.02 mg/L
MIC [8]: 0.15 mg/L (≈ 0.188 µM)
MIC [9]: ≤ 0.02 mg/L
MIC [10]: ≤ 0.02 mg/L
MIC [11]: ≤ 0.02 mg/L
SMILES: CCC1OC(=O)C(C)=CC(C)C(OC2OC(C)CC(N(C)C)C2O)C(C)(OC)CC(C)C(=O)C(C)C2N(CCCCn3cnc(-c4cccnc4)c3)C(=O)OC12C [Ex. 1, 2,3-didéhydro-11,12-didéoxy-3-de[(2,6-didéoxy-3-C-méthyl-3-O-méthyl-alpha-L-ribo-hexopyranosyl)oxy]6-O-méthyl-12,11-[oxycarbonyl[[4-[4-(3-pyridinyl)-1H-imidazol-1-yl]butyl]imino]]-érythromycine]
activité sur les souches bactériennes à gram^⊖ [12]: activité intéressante
activité sur les souches bactériennes à gram^⊖ [13]: activité intéressante
activité sur les souches bactériennes à gram^⊖ [14]: activité intéressante
activité sur les souches bactériennes à gram^⊖ [15]: activité intéressante
